For assay [1], the target named is T1, N-terminally FLAG-tagged PARP2 (amino acids 1-583) (Homo sapiens, UniProt Q9UGN5).
T1 construct: N-terminally FLAG-tagged PARP2 (amino acids 1-583)
Kind of assay: PARP2 probe displacement HTRF assay. The following applies: binned Kd. In kind it is binding. How it is done: Data analysis was performed identical as for PARP1.
On the technique in general: Time-resolved FRET reads energy transfer from a long-lived donor to a nearby acceptor.

The target of assay [2] is full length N-terminally FLAG-tagged PARP1 (Homo sapiens, UniProt P09874). Kind of assay: PARP1 probe displacement HTRF assay. The note with it: for Selectivity: PARP1 over PARP2, ratio Kd (PARP2)/Kd (PARP1), probe displacement HTRF; for Kd: read-out: PARP1 HTRF, binned Kd, PARP1 probe displacement HTRF.
Sequence of full length N-terminally FLAG-tagged PARP1 (P09874 whole entry): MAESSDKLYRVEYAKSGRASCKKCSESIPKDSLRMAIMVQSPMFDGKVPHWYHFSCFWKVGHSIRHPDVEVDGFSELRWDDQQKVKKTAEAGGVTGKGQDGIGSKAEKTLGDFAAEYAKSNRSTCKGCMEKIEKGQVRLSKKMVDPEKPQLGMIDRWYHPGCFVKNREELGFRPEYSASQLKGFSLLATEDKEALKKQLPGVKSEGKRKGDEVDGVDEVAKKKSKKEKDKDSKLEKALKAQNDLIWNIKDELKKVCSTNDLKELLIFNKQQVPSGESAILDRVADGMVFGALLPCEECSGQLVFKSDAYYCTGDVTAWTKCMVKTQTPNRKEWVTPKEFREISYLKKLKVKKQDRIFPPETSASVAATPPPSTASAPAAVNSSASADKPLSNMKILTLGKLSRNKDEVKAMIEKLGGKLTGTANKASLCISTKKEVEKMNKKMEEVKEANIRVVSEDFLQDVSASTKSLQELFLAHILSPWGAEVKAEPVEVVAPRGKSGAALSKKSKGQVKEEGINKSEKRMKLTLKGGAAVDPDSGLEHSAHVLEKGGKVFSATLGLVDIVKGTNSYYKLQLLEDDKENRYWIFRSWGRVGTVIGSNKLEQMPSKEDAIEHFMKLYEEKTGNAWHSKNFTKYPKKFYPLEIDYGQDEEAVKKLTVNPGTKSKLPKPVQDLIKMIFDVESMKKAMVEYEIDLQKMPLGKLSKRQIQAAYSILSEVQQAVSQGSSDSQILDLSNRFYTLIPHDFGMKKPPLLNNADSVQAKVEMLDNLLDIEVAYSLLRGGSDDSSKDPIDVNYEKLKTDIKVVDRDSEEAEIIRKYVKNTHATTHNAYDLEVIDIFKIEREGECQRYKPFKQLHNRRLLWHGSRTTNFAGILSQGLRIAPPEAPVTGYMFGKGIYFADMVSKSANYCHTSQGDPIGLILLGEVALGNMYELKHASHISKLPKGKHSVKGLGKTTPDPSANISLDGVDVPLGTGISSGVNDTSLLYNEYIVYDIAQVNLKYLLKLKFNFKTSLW

T1 sequence (Q9UGN5 whole entry, the tested form may be a part): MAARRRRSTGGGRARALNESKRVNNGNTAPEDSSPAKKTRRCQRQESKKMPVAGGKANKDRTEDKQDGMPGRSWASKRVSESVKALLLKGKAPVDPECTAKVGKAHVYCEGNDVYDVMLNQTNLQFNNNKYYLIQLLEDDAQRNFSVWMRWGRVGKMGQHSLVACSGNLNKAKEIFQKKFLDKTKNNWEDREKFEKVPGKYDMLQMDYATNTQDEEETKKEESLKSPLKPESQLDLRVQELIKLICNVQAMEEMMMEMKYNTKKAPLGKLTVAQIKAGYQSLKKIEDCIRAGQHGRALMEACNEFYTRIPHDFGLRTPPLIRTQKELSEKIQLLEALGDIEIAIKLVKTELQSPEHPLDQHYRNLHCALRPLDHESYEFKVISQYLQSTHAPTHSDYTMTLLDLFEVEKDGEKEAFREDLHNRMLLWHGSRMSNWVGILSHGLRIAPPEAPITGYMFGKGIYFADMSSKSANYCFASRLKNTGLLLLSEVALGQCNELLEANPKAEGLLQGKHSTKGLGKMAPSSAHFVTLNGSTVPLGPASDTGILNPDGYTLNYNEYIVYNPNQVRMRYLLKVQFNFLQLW

For `CNC(=O)c1ccc(N2CCC(N3CCC(c4nc5onc(C(F)(F)F)c5c(=O)[nH]4)C3)CC2)cn1` (racemic) [Compound 176rac], the Kd in assay [1] (PARP2 probe displacement HTRF) was greater than 10 µM. For the same compound, in assay [2], the Selectivity entry is on record as “+ (+ indicates a value of 10 to less than 50)” and the Kd lay in the range of 0.1 to 1 µM.

Take `CNC(=O)c1ccc(N2CCC(N3CCC(c4cc5ccc(C(F)(F)F)cc5c(=O)[nH]4)C3)CC2)cn1` (racemic) [Compound 177rac]: the Kd in assay [1] (PARP2 probe displacement HTRF) is greater than 10 µM. Moreover, in assay [2], the Selectivity entry is listed as “+++ (+++ indicate a value of at least 100)” and the Kd is less than 0.01 µM.

`O=c1[nH]c(C2CCN(C3CCN(c4ccc(-c5ncc[nH]5)cc4)CC3)C2)nc2ccccc12` (single isomer, unassigned) [Compound 76a] had a Kd in assay [1] (PARP2 probe displacement HTRF) of 0.1 to 1 µM. In assay [2], the Selectivity entry is recorded as “− (− indicates a value of less than 10)” and the Kd lay in the range of 0.01 to 0.1 µM.

On to `O=c1[nH]c(C2CCN(C3CCN(c4ccc(-c5ncc[nH]5)cc4)CC3)C2)nc2ccccc12` (single isomer, unassigned) [Compound 76b], for which the results for the Kd in assay [1] (PARP2 probe displacement HTRF) and in assay [2] were less than 0.01 µM and 0.01 to 0.1 µM, respectively. Besides, the Selectivity entry in assay [2] is reported as “− (− indicates a value of less than 10)”.

Consider `CNC(=O)c1ccc(N2CCC(N3CCC(c4nc5cccnc5c(=O)[nH]4)C3)CC2)cn1` (single isomer, unassigned) [Compound 77a], for which the Kd in assay [1] (PARP2 probe displacement HTRF) was greater than 10 µM. In assay [2], the Selectivity result is “+ (+ indicates a value of 10 to less than 50)” and the Kd was 0.1 to 1 µM.

As for `CNC(=O)c1ccc(N2CCC(N3CCC(c4nc5cccnc5c(=O)[nH]4)C3)CC2)cn1` (single isomer, unassigned) [Compound 77b], the Kd in assay [1] (PARP2 probe displacement HTRF) was greater than 10 µM; in assay [2], 0.01 to 0.1 µM. Further, the Selectivity result in assay [2] is recorded as “+++ (+++ indicate a value of at least 100)”.

In assay [1] (PARP2 probe displacement HTRF), `CNC(=O)c1ccc(N2CCC(N3CCCC(c4nc5ccc(F)cc5c(=O)[nH]4)C3)CC2)cn1` (single isomer, unassigned) [Compound 78a] displayed a Kd of 1 to 10 µM. Also, in assay [2], the Selectivity entry is reported as “+++ (+++ indicate a value of at least 100)” and the Kd is less than 0.01 µM.

As for `CNC(=O)c1ccc(N2CCC(N3CCCC(c4nc5ccc(F)cc5c(=O)[nH]4)C3)CC2)cn1` (single isomer, unassigned) [Compound 78b], the Kd in assay [1] (PARP2 probe displacement HTRF) fell in the range of 0.1 to 1 µM. In addition, in assay [2], the Selectivity result is recorded as “+ (+ indicates a value of 10 to less than 50)” and the Kd is 0.01 to 0.1 µM.

Compound `N#Cc1ccc(N2CCC(N3CCCC(c4nc5ccccc5c(=O)[nH]4)C3)CC2)cc1` (single isomer, unassigned) [Compound 79a] returned a Kd in assay [1] (PARP2 probe displacement HTRF) of 0.1 to 1 µM. In assay [2], the Selectivity result was “+ (+ indicates a value of 10 to less than 50)” and the Kd was in the range of 0.01 to 0.1 µM.

Regarding `N#Cc1ccc(N2CCC(N3CCCC(c4nc5ccccc5c(=O)[nH]4)C3)CC2)cc1` (single isomer, unassigned) [Compound 79b], the Kd in assay [1] (PARP2 probe displacement HTRF) lay in the range of 0.1 to 1 µM. Moreover, in assay [2], the Selectivity entry is recorded as “+ (+ indicates a value of 10 to less than 50)” and the Kd lay within 0.01 to 0.1 µM.

The compound `CNC(=O)c1ccc(N2CCC(N3CCC(c4nc5ccccc5c(=O)[nH]4)C3)CC2)cc1` (single isomer, unassigned) [Compound 80a] came in with a Kd in assay [1] (PARP2 probe displacement HTRF) of 0.1 to 1 µM. Further, in assay [2], the Selectivity entry is “+++ (+++ indicate a value of at least 100)” and the Kd is less than 0.01 µM.

As for `CNC(=O)c1ccc(N2CCC(N3CCC(c4nc5ccccc5c(=O)[nH]4)C3)CC2)cc1` (single isomer, unassigned) [Compound 80b], in assay [1] (PARP2 probe displacement HTRF), the Kd is 0.1 to 1 µM. Besides, in assay [2], the Selectivity result is recorded as “− (− indicates a value of less than 10)” and the Kd was in the range of 0.1 to 1 µM.

The compound `CNC(=O)c1ccc(N2CCC(N3CCC(c4nc5ccncc5c(=O)[nH]4)C3)CC2)cn1` (single isomer, unassigned) [Compound 81a] returned a Kd in assay [1] (PARP2 probe displacement HTRF) greater than 10 µM. Also, in assay [2], the Selectivity result was “+ (+ indicates a value of 10 to less than 50)” and the Kd fell in the range of 0.1 to 1 µM.

With `CNC(=O)c1ccc(N2CCC(N3CCC(c4nc5ccncc5c(=O)[nH]4)C3)CC2)cn1` (single isomer, unassigned) [Compound 81b], the Kd in assay [1] (PARP2 probe displacement HTRF) is greater than 10 µM. Besides, in assay [2], the Selectivity entry is listed as “+++ (+++ indicate a value of at least 100)” and the Kd was in the range of 0.01 to 0.1 µM.

As to `CNC(=O)c1ccc(N2CCC(N3CCCC(c4nc5ccccc5c(=O)[nH]4)C3)CC2)cc1` (single isomer, unassigned) [Compound 82a], the Kd lay within 0.1 to 1 µM in assay [1] (PARP2 probe displacement HTRF) and 0.01 to 0.1 µM in assay [2]. In addition, in assay [2], the Selectivity result is listed as “− (− indicates a value of less than 10)”.

For `CNC(=O)c1ccc(N2CCC(N3CCCC(c4nc5ccccc5c(=O)[nH]4)C3)CC2)cc1` (single isomer, unassigned) [Compound 82b], the Kd in assay [1] (PARP2 probe displacement HTRF) was greater than 10 µM; in assay [2], 0.01 to 0.1 µM. Besides, in assay [2], the Selectivity entry is “++ (++ indicates a value of 50 to less than 100)”.

In assay [1] (PARP2 probe displacement HTRF), `CNC(=O)c1ccc(N2CCC(N3CCCC(c4nc5ccccc5c(=O)[nH]4)C3)CC2)nc1` (single isomer, unassigned) [Compound 83a] gave a Kd of 1 to 10 µM. In assay [2], the Selectivity result is recorded as “− (− indicates a value of less than 10)” and the Kd fell in the range of 0.1 to 1 µM.

`CNC(=O)c1ccc(N2CCC(N3CCCC(c4nc5ccccc5c(=O)[nH]4)C3)CC2)nc1` (single isomer, unassigned) [Compound 83b] showed a Kd in assay [1] (PARP2 probe displacement HTRF) greater than 10 µM. Also, in assay [2], the Selectivity result was “+ (+ indicates a value of 10 to less than 50)” and the Kd fell in the range of 0.1 to 1 µM.

Turning to `CNC(=O)c1ccc(N2CCC(N3CCC(c4nc5cnccc5c(=O)[nH]4)C3)CC2)cn1` (single isomer, unassigned) [Compound 84a], the figures for the Kd in assay [1] (PARP2 probe displacement HTRF) and in assay [2] were greater than 10 µM and 1 to 10 µM, respectively. Moreover, the Selectivity result in assay [2] is “− (− indicates a value of less than 10)”.

`CNC(=O)c1ccc(N2CCC(N3CCC(c4nc5cnccc5c(=O)[nH]4)C3)CC2)cn1` (single isomer, unassigned) [Compound 84b]: the Kd in assay [1] (PARP2 probe displacement HTRF) was greater than 10 µM. For the same compound, in assay [2], the Selectivity result was “++ (++ indicates a value of 50 to less than 100)” and the Kd was in the range of 0.01 to 0.1 µM.

With `CNC(=O)c1ccc(N2CCC(N3CCC(c4nc5cccc(Cl)c5c(=O)[nH]4)C3)CC2)cn1` (single isomer, unassigned) [Compound 85a], the results for the Kd in assay [1] (PARP2 probe displacement HTRF) and in assay [2] were 0.1 to 1 µM and 0.01 to 0.1 µM, respectively. Further, the Selectivity result in assay [2] is recorded as “+ (+ indicates a value of 10 to less than 50)”.

For `CNC(=O)c1ccc(N2CCC(N3CCC(c4nc5cc(Cl)ccc5c(=O)[nH]4)C3)CC2)cn1` (single isomer, unassigned) [Compound 87a], the Kd in assay [1] (PARP2 probe displacement HTRF) is 1 to 10 µM; in assay [2], 0.1 to 1 µM. Further, the Selectivity entry in assay [2] is listed as “+ (+ indicates a value of 10 to less than 50)”.

`CNC(=O)c1ccc(N2CCC(N3CCC(c4cc5c(F)cncc5c(=O)[nH]4)C3)CC2)c(F)n1` (single isomer, unassigned) [Compound 343b, 6-fluoro-5-(4-(3-(5-fluoro-1-oxo-1,2-dihydro-2,7-naphthyridin-3-yl)pyrrolidin-1-yl)piperidin-1-yl)-N-methylpicolinamide] had a Kd in assay [1] (probe displacement HTRF) of 1 to 10 µM.

The compound `CCN1CCCc2c1nc(C13CC(C1)N(C1CCN(c4ccc(C(=O)NC)nc4)CC1)C3)[nH]c2=O` [Compound 383] registered a Kd in assay [1] (probe displacement HTRF) of 0.1 to 1 µM.

These data come from patent US20250152585A1, “PHARMACEUTICAL COMPOUND” (Duke Street Bio Limited, priority 2022, published 2025).
